Paper PMC11876601 (Molecular Systems Biology, 2025)
Several values for one entry are separate records, joined by “and”; a condition that tells them apart may be missing. Identical values can stand only once. Like-named read-outs stand apart in the source and are kept apart here.

Legend:
CDK5 = test system: CDK5; design: method as in Klaeger et al. (2017); conditions: lysate 4 cell line mix (Colo205, K-562, MV-4-11, and SK-N-BE(2)), Kinobeads y, ref Klaeger et al. (2017); cited from earlier work
SLK = test system: SLK; design: method as in Klaeger et al. (2017); conditions: lysate 4 cell line mix (Colo205, K-562, MV-4-11, and SK-N-BE(2)), Kinobeads y, ref Klaeger et al. (2017); cited from earlier work
PSN-1 cells = experiment: Drug combination viability screen (ATPlite, 72 h); format: cell-based, human; conditions: for EC50: Homo sapiens, PSN1;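 on AUC: area under vehicle-normalized viability curve scaled 0 to 100 percent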;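 on Curve bottom: fraction of vehicle control viability from four-parameter log-logistic fit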
PDO UME053 = experiment: PDO viability assay (CellTiter-Glo, 72 h); format: cell-based, human; design: Curve top / Curve bottom: scale not given here;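 on Curve top: fraction of plate-wise median vehicle signal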
Method: Primary patient-derived PDAC organoid (PDO) experiments were performed in the laboratories of Prof. Maximilian Reichert (University Hospital of the TU Munich, Germany, PDO set 1: B250, B535, B678) and Prof. Jens T. Siveke (University Hospital Essen, Germany; PDO set 2: UME008, UME012, UME051, UME053, UME060, UME061). PDOs were generated from surgical resection, EUS-guided fine needle biopsy (EUS-FNB), or ascites (Appendix Table S2). Surgical specimens were first minced with a sterile scalpel and subsequently washed with Anti-Anti solution and washing medium (PDO set 1), or vice versa (PDO set 2; Appendix Table S3). Biopsy samples were directly washed with an Anti-Anti solution and washing medium. Samples were digested using 1 ml of digestion medium at 37 °C while shaking, and the enzymatic reaction was stopped by adding 15 ml of washing medium (Appendix Table S3). If samples of PDO set 1 were blood-stained, tissue pellets were first incubated with ACK lysing buffer/red blood cells lysis buffer (Thermo Fisher Scientific) for 5 min and then digested using TrypLE (Thermo Fisher Scientific). The reversed procedure was applied for blood-stained samples of PDO set 2. For PDO generation from ascites, the material was first spun down at 500 × g for 5 min. Then, washing medium was added and the suspension was centrifuged at 300 × g for 5 min. If the pellet was blood-stained, ACK lysis buffer was added and incubated at room temperature.
For viability assays in PDOs, confluent organoids were removed from medium, and Matrigel was dissolved by adding 200 μl (PDO set 1) or 2 ml (PDO set 2) of Cell Recovery Solution (Corning), and additionally 500 μl of DPBS (PDO set 1 only). Samples were transferred into a falcon and incubated on ice for 30 min, followed by centrifugation at 300 × g at 4 °C for 5 min (after adding 10 ml washing medium for PDO set 2). Subsequently, TrypLE Express Enzyme (Thermo Fisher) was added to cell pellets and incubated for 2 × 5 min at 37 °C. The enzymatic reaction was quenched by DPBS (PDO set 1) or washing medium (PDO set 2), and samples were washed by centrifugation at 300 × g at 4 °C for 5 min. Five hundred cells/well were seeded in 384-well plates (Corning) in 50 μl of PDO medium containing 10% Matrigel. To allow PDO generation, cells were incubated for 4 days at 37 °C and 5% CO2. […] Experiments were pipetted manually (PDO set 1) or automatically using a TECAN D300e Digital Dispenser (HP; PDO set 2). Treatments were performed in eight replicates, except for PDO PPES045 (quadruplicates). After 72 h, cell viability was measured using the CellTiter-Glo Luminescent Cell Viability Assay (Promega) diluted 1:5 in the final volume of the well. After 20 min of incubation at room temperature under gentle shaking, the acquisition was performed in the microplate reader VantaSTAR (BMG Labtech) using 3000 gain for the amplification measurement of a detected signal (PDO set 1) or the Spark Multimode microplate reader (TECAN) at 800 ms integration time (PDO set 2).

[1] = PDO UME053, GEM + Elimusertib (ATRi) dose1, per replicate
[2] = PDO UME053, GEM + Elimusertib (ATRi) dose2, per replicate
[3] = PDO UME053, GEM + Elimusertib (ATRi) dose3, per replicate
[4] = PDO UME053, GEM alone, per replicate
[5] = PDO UME053, experiment GEM (GEM alone), curve fit

Work on `Nc1ccn([C@@H]2O[C@H](CO)[C@@H](O)C2(F)F)c(=O)n1` [GEM, Gemcitabine] yielded an EC50 (PSN-1 cells; read-out: EC50) of 3.44 nM, an EC50 (PSN-1 cells; read-out: pEC50 (converted)) of 3.47 nM and a Reponse (PSN-1 cells; PSN-1, R1, 13.72 nM) of 1225440. For the same compound, the Reponse (PSN-1 cells; PSN-1, R1, 41.15 nM) was 969400, the Reponse (PSN-1 cells; PSN-1, R1, […] nM) was 806840 and the Reponse (PSN-1 cells; PSN-1, R1, 370.37 nM) was 818640. The Reponse (PSN-1 cells; PSN-1, R1, 1111.11 nM) was 786440, the Reponse (PSN-1 cells; PSN-1, R1, 3333.33 nM) was 785720 and the Reponse (PSN-1 cells; PSN-1, R1, 10000 nM) was 723120. It also gave a Reponse (PSN-1 cells; PSN-1, replicate R2, dose 13.72 nM, raw signal) of 1542400, a Reponse (PSN-1 cells; PSN-1, replicate R2, dose 41.15 nM, raw signal) of 1210080 and a Reponse (PSN-1 cells; PSN-1, replicate R2, dose 123.46 nM, raw signal) of 1089000. For the same compound, the Reponse (PSN-1 cells; PSN-1, replicate R2, dose 370.37 nM, raw signal) was 1103640, the Reponse (PSN-1 cells; PSN-1, replicate R2, dose 1111.11 nM, raw signal) was 1004960 and the Reponse (PSN-1 cells; PSN-1, replicate R2, dose 3333.33 nM, raw signal) was 1071400. The Reponse (PSN-1 cells; PSN-1, replicate R2, dose 10000 nM, raw signal) was 1052080, the AUC (PSN-1 cells; PSN-1, GEM curve fit) was 35.4% and the Curve bottom (PSN-1 cells; PSN-1, GEM curve fit) was 0.11. For the same compound, the Curve effect size (PSN-1 cells; PSN-1, GEM curve fit) was 0.89, the Curve slope (PSN-1 cells; PSN-1, GEM curve fit) was 2.16 and the Curve top (PSN-1 cells; PSN-1, GEM curve fit) was 1.03. For the same compound, the EC50 (PDO UME053; Homo sapiens, PDO UME053, GEM + Elimusertib (ATRi) dose1, mean of replicates, read-out: EC50 mean) was 3.76 nM, the EC50 (PDO UME053; Homo sapiens, PDO UME053, GEM + Elimusertib (ATRi) dose1, per replicate, read-out: EC50) was 4.76 nM and the EC50 (PDO UME053; Homo sapiens, PDO UME053, GEM + Elimusertib (ATRi) dose1, per replicate, read-out: pEC50 (converted)) was 4.79 nM. For the same compound, the EC50 (PDO UME053; Homo sapiens, PDO UME053, GEM + Elimusertib (ATRi) dose2, mean of replicates, read-out: EC50 mean) was 2.48 nM, the EC50 (PDO UME053; Homo sapiens, PDO UME053, GEM + Elimusertib (ATRi) dose3, mean of replicates, read-out: EC50 mean) was 2.58 nM and the EC50 (PDO UME053; Homo sapiens, PDO UME053, GEM alone, mean of replicates, read-out: EC50 mean) was 3.83 nM. It also gave an EC50 (PDO UME053; Homo sapiens, PDO UME053, GEM alone, per replicate, read-out: EC50) of 4.9 nM, an EC50 (PDO UME053; Homo sapiens, PDO UME053, GEM alone, per replicate, read-out: pEC50 (converted)) of 4.9 nM and an EC50 (PDO UME053; Homo sapiens, PDO UME053, GEM alone, read-out: EC50 mean) of 3.8 nM. For the same compound, the EC50 (PDO UME053; Homo sapiens, PDO UME053, experiment GEM (GEM alone), mean of replicates, read-out: EC50 mean) was 3.83 nM, the EC50 (PDO UME053; Homo sapiens, PDO UME053, experiment GEM (GEM alone), single replicates, read-out: pEC50 (converted)) was 5.75 nM and the EC50 (PDO UME053; Homo sapiens, SET-2, PDO UME053, PDO set 2, experiment GEM (GEM alone), single replicates, read-out: EC50) was 5.76 nM. The Curve bottom (PDO UME053; [1]) was 4.76 and 3.51 and 3.42 and 4.59 and 3.68 and 3.05, the Curve slope (PDO UME053; [1]) was -0.0232 and -0.0231 and -0.0214 and -0.0351 and 0.00541 and -0.00734 and the Curve top (PDO UME053; [1]) was 1.03 and 0.94. The pEC50 (PDO UME053; [1]) was 8.45 and 8.47 and 8.34 and 8.43 and 8.52, the EC50 (PDO UME053; PDO UME053, GEM + Elimusertib (ATRi) dose1, per replicate, read-out: EC50) was 3.51 nM and 3.42 nM and 4.59 nM and 3.68 nM and 3.05 nM and the Curve bottom (PDO UME053; [2]) was 3.13 and 3.73 and 2.51 and 1.19 and 1.27. The Curve slope (PDO UME053; [2]) was -0.0242 and -0.026 and -0.0173 and -0.00205 and -0.00262, the Curve top (PDO UME053; [2]) was 1.01 and 0.93 and 0.97 and 0.99 and the pEC50 (PDO UME053; [2]) was 8.50 and 8.43 and 8.60 and 8.92 and 8.90. The EC50 (PDO UME053; PDO UME053, GEM + Elimusertib (ATRi) dose2, per replicate, read-out: EC50) was 3.13 nM and 3.73 nM and 2.51 nM and 1.19 nM and 1.27 nM, the Curve bottom (PDO UME053; [3]) was 2.72 and 2.86 and 2.18 and 1.18 and 1.85 and the Curve slope (PDO UME053; [3]) was -0.02 and -0.027 and -0.013 and -0.0115. The Curve top (PDO UME053; [3]) was 0.85 and 0.95 and 0.90, the pEC50 (PDO UME053; [3]) was 8.56 and 8.54 and 8.66 and 8.93 and 8.73 and the EC50 (PDO UME053; PDO UME053, GEM + Elimusertib (ATRi) dose3, per replicate, read-out: EC50) was 2.72 nM and 2.86 nM and 2.18 nM and 1.18 nM and 1.85 nM. The Curve bottom (PDO UME053; [4]) was 4.90 and 3.43 and 2.87 and 2.77 and 4.39 and 2.68, the Curve slope (PDO UME053; [4]) was -0.0183 and 6.71e-5 and 0.00446 and -0.00144 and 0.00242 and 0.00525 and the Curve top (PDO UME053; [4]) was 1.30 and 1.34. The pEC50 (PDO UME053; [4]) was 8.46 and 8.54 and 8.56 and 8.36 and 8.57, the EC50 (PDO UME053; PDO UME053, GEM alone, per replicate, read-out: EC50) was 3.43 nM and 2.87 nM and 2.77 nM and 4.39 nM and 2.68 nM and the EC50 (PDO UME053; PDO UME053, PDO set 2, experiment GEM (GEM alone), single replicates, read-out: EC50) was 3.82 nM. For the same compound, the Curve bottom (PDO UME053; [5]) was 5.76 and 3.82, the Curve top (PDO UME053; [5]) was 0.62 and the pEC50 (PDO UME053; PDO UME053, experiment GEM (GEM alone), single replicates) was 8.42.
